According to patent publication US20240173255A1, “Polymeric Micelle Coated with Chain-Like Poorly Soluble Drug, Preparation Method and Application” (Hangzhou Hanjing Biotechnology Co., Ltd, priority 2021, published 2024):
Values after ≈ are worked out from the molar mass of the structure shown.

Experiments:
[1] = Water solubility stated in background; settings: background statement
Stability test in blood = type: in vitro ADME; settings: 37° C., 2 h, FIG. 4
Experimental: Taking the polymeric micelle prepared according to Example 2 as an example: in a 96-well plate, 10 μL of the polymeric micelle was added, then 190 μL of blood was added and shaken quickly to be uniform. At 37° C., a resulting mixture was taken out at preset time points of 5 min, 30 min, 60 min, and 120 min separately, and centrifuged at 3,000 rpm for 10 min to separate a plasma layer (upper layer) and a red blood cell layer (lower layer), each 100 μL. The plasma and red blood cell samples were treated using an organic solvent extraction method, and a concentration of CPD14 molecules in the samples was quantified and analyzed using HPLC (gradient method), while CPD14 molecules not entrapped by Soluplus were used as a control.

[2] = Solubility of series A to E drugs in water and 10% Soluplus solution; type: physicochemical; settings: for Solubility in 10% Soluplus: 10% Soluplus solution
Description: The solubilities of the poorly soluble chain-like drugs of the series A to E according to the present disclosure in water and a 10% Soluplus solution are shown in Table 2.

[3] = tested on: H22 mouse liver cancer subcutaneous tumor transplants; experiment: Treatment test on subcutaneous tumor transplants in mice; type: in vivo; settings: ICR mice, 20 mg/kg tail vein once a day for 10 days, tumors removed on 11th day
Experimental: 30 ICR mice weighing about 20 g were randomly divided into 3 groups, with 10 mice in each group. Liver cancer H22 cells were inoculated subcutaneously into the right armpit of mice. The next day, mice in Group 1 were injected with CPD14 injection without Soluplus prepared according to Example 2 at 20 mg/kg through the tail vein; mice in Group 2 waere injected with the polymeric micelle prepared according to Example 2 at 20 mg/kg through the tail vein; and mice in Group 3 were injected with the Soluplus blank micelle without drug at 20 mg/kg through the tail vein. The mice were injected once a day for 10 consecutive days, and the body weight of the mice was recorded and the status of the mice was observed every day. On the 11th day, the tumors of the mice were removed and measured.

[4] = tested on: mouse lung cancer A549 cells; experiment: Cancer cell inhibition test (EZMTT), A549; type: cell-based; settings: 5 days culture
Experimental: (§1) Taking the polymeric micelle prepared according to Example 2 as an example: the polymeric micelle was added to a 96-well plate, and 1,000 each of […] lung cancer A549 cells and mouse liver cancer H22 cells were added to each well.

[5] = tested on: mouse liver cancer H22 cells; experiment: Cancer cell inhibition test (EZMTT), H22; type: cell-based; settings: 5 days culture
Experimental: as §1

[6] = Bioavailability test (pharmacokinetics) in ICR mice; type: in vivo, mouse; settings: 10 mg/kg tail vein injection
Experimental: 36 Institute of Cancer Research (ICR) mice weighing about 20 g were randomly divided into 2 groups, with 18 mice in each group. The mice all were separately administered using a CPD14 injection without Soluplus entrapment prepared according to Example 2 and the polymeric micelle prepared according to Example 2 in the same concentration, at a dose of 10 mg/kg by tail vein injection. Blood was collected at 0.003 h, 0.17 h, 0.5 h, 1 h, 2 h, 4 h, 8 h, 12 h, and 24 h after administration, and a plasma concentration of CPD14 was measured after treating the whole blood or plasma.

[7] = Solubility of compound CPD4 in different solvents or carriers (HPLC of supernatant); type: physicochemical
Experimental: Taking the symmetric diselenoline molecule CPD4 from series A prepared according to Example 1 as an example, solubilities in different solvents and carriers were measured separately. A test method was conducted as follows: 1 mg of the compound was added into 1 mL of different solvents or carriers separately, ultrasonicated in a water bath for 10 min to fully dissolve the compound to obtain a mixture, and the mixture was stirred at ambient temperature for 12 h, and centrifuged, and a compound concentration in a resulting supernatant was determined by HPLC.

Hydrophobic constant = type: physicochemical
Description: (§2) The hydrophobic constants and solubilities of the selenium-containing glutaminase inhibitors from series A to E prepared according to Examples 1 to 5 of the present disclosure as well as the commercially available ethaselen in water, dimethylsulfoxide (DMSO), and Soluplus solutions are shown in Table 4.

[8] = Solubilities of ethaselen and compounds of Examples 1 to 5 in water, DMSO and Soluplus solutions; type: physicochemical
Description: as §2

[9] = Sodium acetate buffer (pH = 4.5)

COc1ccc2[se]n(CCCCCCn3[se]c4ccc(O)cc4c3=O)c(=O)c2c1
water solubility [1]: 3.3 µg/mL (≈ 6.29 µM)

COc1ccc2[se]n(CCCCCCn3[se]c4ccc(O)cc4c3=O)c(=O)c2c1 [CPD14]
stability rate in blood (Stability test in blood): significantly lower than that of the polymeric micelle
Solubility in 10% Soluplus [2]: >1000 µg/mL
Solubility in water [2]: 10 µg/mL (≈ 19.1 µM)
Tumor weight of H22 tumor transplant [3]: 2.15 ± 0.05 g
IC50 [4]: 0.49 ± 0.07 µM
IC50 [5]: 0.51 ± 0.04 µM
AUC0 h→24 h [6]: 9600 ± 1100 ng·h/mL
CL [6]: 17 ± 2 mL/min/kg
Cmax [6]: 6600 ± 700 ng/mL
T1/2β [6]: 102 ± 0.6 min
Tmax [6]: 1.98 min

O=c1c2ccccc2[se]n1CCCCCCn1[se]c2ccccc2c1=O [CPD4]
Solubility in 10% Soluplus [2]: 500 µg/mL (≈ 1050 µM)
Solubility in water [2]: 1 µg/mL (≈ 2.09 µM)
Dissolution multiple ([7]; Acetone): 275
Solubility ([7]; Acetone): 440 ± 40 µg/mL (≈ 920 µM)
Dissolution multiple ([7]; Acetonitrile): 263
Solubility ([7]; Acetonitrile): 420 ± 5 µg/mL (≈ 878 µM)
Dissolution multiple ([7]; DMF): 10819
Solubility ([7]; DMF): 17310 ± 320 µg/mL (≈ 36200 µM)
Dissolution multiple ([7]; DMSO): 21131
Solubility ([7]; DMSO): 33810 ± 700 µg/mL (≈ 70700 µM)
Dissolution multiple ([7]; Dichloromethane): 1981
Solubility ([7]; Dichloromethane): 3170 ± 160 µg/mL (≈ 6630 µM)
Dissolution multiple ([7]; Ethanol): 800
Solubility ([7]; Ethanol): 1280 ± 40 µg/mL (≈ 2680 µM)
Dissolution multiple ([7]; Ethyl acetate): 150
Solubility ([7]; Ethyl acetate): 240 ± 20 µg/mL (≈ 502 µM)
Dissolution multiple ([7]; Hydrochloric acid (pH = 1.2)): 1.38
Solubility ([7]; Hydrochloric acid (pH = 1.2)): 2.2 ± 0.26 µg/mL (≈ 4.6 µM)
Dissolution multiple ([7]; Isopropanol): 613
Solubility ([7]; Isopropanol): 980 ± 60 µg/mL (≈ 2050 µM)
Dissolution multiple ([7]; Liposome: Cholesterol): 46
Solubility ([7]; Liposome: Cholesterol): 60 ± 1 µg/mL (≈ 125 µM)
Dissolution multiple ([7]; Liposome: Lecithin): 40
Solubility ([7]; Liposome: Lecithin): 40 ± 5 µg/mL (≈ 83.6 µM)
Dissolution multiple ([7]; Methanol): 881
Solubility ([7]; Methanol): 1410 ± 130 µg/mL (≈ 2950 µM)
Dissolution multiple ([7]; PBS (pH = 7.4)): 0.5
Solubility ([7]; PBS (pH = 7.4)): 0.8 ± 0.15 µg/mL (≈ 1.67 µM)
Dissolution multiple [7, 9]: 0.81
Solubility [7, 9]: 1.3 ± 0.47 µg/mL (≈ 2.72 µM)
Dissolution multiple ([7]; Solid adjuvant F68): 8.1
Solubility ([7]; Solid adjuvant F68): 13 ± 3 µg/mL
Dissolution multiple ([7]; Solid adjuvant F127): 61
Solubility ([7]; Solid adjuvant F127): 98 ± 8 µg/mL
Dissolution multiple ([7]; Solid adjuvant HP-β-CD): 38
Solubility ([7]; Solid adjuvant HP-β-CD): 60 ± 3 µg/mL
Dissolution multiple ([7]; Solid adjuvant PEG2000): 4.4
Solubility ([7]; Solid adjuvant PEG2000): 7 ± 2 µg/mL
Dissolution multiple ([7]; Solid adjuvant PEG4000): 5
Solubility ([7]; Solid adjuvant PEG4000): 8 ± 1 µg/mL
Dissolution multiple ([7]; Solid adjuvant PEG6000): 3.8
Solubility ([7]; Solid adjuvant PEG6000): 6 ± 1 µg/mL
Dissolution multiple ([7]; Solid adjuvant SBE-β-CD): 44
Solubility ([7]; Solid adjuvant SBE-β-CD): 71 ± 4 µg/mL
Dissolution multiple ([7]; Soluplus): 400
Solubility ([7]; Soluplus): 515 ± 8 µg/mL (≈ 1080 µM)
Dissolution multiple ([7]; n-Octanol): 662
Solubility ([7]; n-Octanol): 1060 ± 80 µg/mL (≈ 2220 µM)
Solubility ([7]; water): 1.6 ± 0.05 µg/mL (≈ 3.35 µM)

O=c1c2ccccc2[se]n1CCn1[se]c2ccccc2c1=O [Ethaselen, ethaselen]
Hydrophobic constant (Hydrophobic constant): 1.87
Solubility ([8]; DMSO, organic solvent or mixture, read-out: Solubility in DMSO): 22000 µg/mL (≈ 52100 µM)
Solubility ([8]; water, read-out: Solubility in Water): 2 to 3 µg/mL (≈ 4.74 to 7.11 µM)
